A word on the EC50: it is the concentration giving half of the maximal effect. Read a high EC50 as a need for much substance. The Ki is the dissociation constant of the complex between target and ligand, obtained from inhibition or displacement.

“And” between values parts separate entries of the source, which are not always exact repeats. Equal entries are not always repeated. Structures can show the parent of a compound that is named as a salt. Where two headings read alike, the source gives them in different places.

We go through 30 compounds from patent US20150291625A1 (PFIZER INC., priority 2012, published 2015).

Assay [1] has as its target T1, D1 (Homo sapiens, UniProt P21728). Nature of the assay: D1 cAMP HTRF assay (HEK293T/hD1#1 stable cell line). It is filed as cell-based. On the set-up: expressed in transfected cells. An excerpt:
This assay was used to determine the ability of a test compound to agonize (including partially agonize) D1. A Mab anti-cAMP labeled Cryptate visualizes the tracer. […] The signal, therefore, is inversely proportional to the concentration of cAMP in the sample.
The cAMP Dynamic kit was obtained from Cisbio International (Cisbio 62AM4PEJ). Multidrop Combi (Thermo Scientific) was used for assay additions. Envision (PerkinElmer) reader was used to read HTRF.
A HEK293T/hD1#1 stable cell line was constructed internally (Pfizer Ann Arbor). […] One mL aliquots of the cells were made in Cryo-vials and frozen at −80° C. for future use in the D1 HTRF assay.
Frozen cells were quickly thawed, re-suspended in 50 mL warm media and allowed to sit for 5 min prior to centrifugation (1000 rpm) at room temperature. Media was removed and cell pellet was re-suspended in PBS/0.5 μM IBMX generating 2e5 cells/mL. […] Cells and compounds were incubated at room temperature for 30 min. Working solutions of cAMP-D2 and anti-cAMP-cryptate were prepared according to Cisbio instructions. Using Multidrop, 5 μL cAMP-D2 working solution was added to the assay plate containing the test compound and cells. Using Multidrop, 5 μL anti-cAMP-cryptate working solutions was added to assay plate containing test compound, cells and cAMP-D2. Assay plate was incubated for 1 hour at room temperature. Assay plate was read on Envision plate reader using Cisbio recommended settings. A cAMP standard curve was generated using cAMP stock solution provided in the Cisbio kit.
Data analysis was done using computer software. Percent effects were calculated from the compound controls. Ratio EC50 was determined using the raw ratio data from the Envision reader. The cAMP standard curve was used in an analysis program to determine cAMP concentrations from raw ratio data. cAMP EC50 was determined using the calculated cAMP data.
(In general: Time-resolved FRET reads energy transfer from a long-lived donor to a nearby acceptor.)

The target in assay [2] is T1, D1. Nature of the assay: Human D1 receptor binding assay ([3H]-SCH23390 competition).
Setting [3] is: Human D1 Receptor Binding, Ki (nM), Geometric mean of 2-4 determinations, a: >=5 determinations, d: single determination.

T1 sequence (P21728 whole entry): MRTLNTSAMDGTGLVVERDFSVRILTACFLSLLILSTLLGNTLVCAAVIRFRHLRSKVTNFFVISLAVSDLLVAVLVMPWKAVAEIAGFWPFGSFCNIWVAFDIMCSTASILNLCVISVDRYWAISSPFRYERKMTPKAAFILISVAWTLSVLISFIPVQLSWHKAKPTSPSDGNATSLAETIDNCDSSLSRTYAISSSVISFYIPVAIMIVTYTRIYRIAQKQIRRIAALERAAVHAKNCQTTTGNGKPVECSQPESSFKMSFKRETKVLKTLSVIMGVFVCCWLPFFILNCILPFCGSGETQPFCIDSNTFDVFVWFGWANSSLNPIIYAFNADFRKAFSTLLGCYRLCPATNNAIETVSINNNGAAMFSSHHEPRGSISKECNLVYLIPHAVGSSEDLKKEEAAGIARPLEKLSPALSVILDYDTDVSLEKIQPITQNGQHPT

With `c1cc2occc2c(Oc2ccc(-c3nccc4occc34)cc2)n1` [Example 119, 4-[4-(furo[3,2-c]pyridin-4-yloxy)phenyl]furo[3,2-c]pyridine], the EC50 at D1 [1] is more than 11200 nM. For the same compound, at D1 [2] (setting [3]), the inhibition constant (Ki) amounted to 2240 nM.

`Cc1cc(Oc2nccc3occc23)ccc1-c1nc2nccn2cc1C` [Example 111, 7-[4-(furo[3,2-c]pyridin-4-yloxy)-2-methylphenyl]-6-methylimidazo[1,2-a]pyrimidine] displayed an EC50 on D1 [1] of 335 nM. This compound gave a Ki on D1 [2] (setting [3]) of 41.2 nM.

Turning to `Cc1cc(Oc2nccc3occc23)ccc1-c1c(C)ncnc1N1CC=CC1` [Example 167, 4-{4-[4-(2,5-dihydro-1H-pyrrol-1-yl)-6-methylpyrimidin-5-yl]-3-methylphenoxy}furo[3,2-c]pyridine, trifluoroacetate salt], on D1 [1], the EC50 came out at 354 nM. Also, the Ki at D1 [2] (setting [3]) turned out to be 24.4 nM.

As to `Cc1cc(Oc2nccc3occc23)ccc1-c1c(C)cnnc1C` [Example 12, 4-[4-(3,5-Dimethylpyridazin-4-yl)-3-methylphenoxy]furo[3,2-c]pyridine], the EC50 at D1 [1] was 166 nM and 395 nM. In addition, the Ki on D1 [2] (setting [3]) is 14.3 nM.

The compound `O=C(COc1cc(Oc2nccc3occc23)ccc1-c1cccc2nccn12)NC1CC1` [Example 43, N-cyclopropyl-2-[5-(furo[3,2-c]pyridin-4-yloxy)-2-(imidazo[1,2-a]pyridin-5-yl)phenoxy]acetamide, trifluoroacetate salt] showed a concentration for a half-maximal effect (EC50) at D1 [1] of 605 nM. In addition, the affinity at D1 [2] (setting [3]) corresponds to a Ki of 211 nM.

The compound `COc1cc(Oc2nccc3occc23)ccc1-c1cc(N)cnc1C` [Example 113, 5-[4-(furo[3,2-c]pyridin-4-yloxy)-2-methoxyphenyl]-6-methylpyridin-3-amine] yielded an EC50 on D1 [1] of 1020 nM. The same compound gave a Ki on D1 [2] (setting [3]) of 133 nM.

Regarding `Cc1ncccc1-c1ccc(Oc2nccc3occc23)cc1OCCc1cnoc1` [Example 194, 4-{4-(2-methylpyridin-3-yl)-3-[2-(1,2-oxazol-4-yl)ethoxy]phenoxy}furo[3,2-c]pyridine, formate salt], the EC50 at D1 [1] was 1680 nM and 1330 nM. The same compound displayed a Ki on D1 [2] (setting [3]) of 88.5 nM.

Take `COCCOc1cc(Oc2nccc3occc23)ccc1-c1c(C)ncnc1C` [Example 190, 4-[4-(4,6-dimethylpyrimidin-5-yl)-3-(2-methoxyethoxy)phenoxy]furo[3,2-c]pyridine]: a half-maximal response on D1 [1] (EC50) required 2650 nM. At D1 [2] (setting [3]), the Ki stood at 79.3 nM.

The compound `Cc1ccc2nccn2c1-c1ccc(Oc2nccc3occc23)cc1O` [Example 153, 5-(furo[3,2-c]pyridin-4-yloxy)-2-(6-methylimidazo[1,2-a]pyridin-5-yl)phenol] yielded an EC50 on D1 [1] of 51.8 nM. Moreover, the Ki at D1 [2] (setting [3]) came out at 5.99 nM.

On to `Cc1cnccc1-c1c(C)cc(Oc2nccc3occc23)cc1C` [Example 29, 4-[3,5-Dimethyl-4-(3-methylpyridin-4-yl)phenoxy]furo[3,2-c]pyridine], for which, at D1 [1], a half-maximal response (EC50) required 2820 nM. Besides, at D1 [2] (setting [3]), the Ki turned out to be 329 nM.

In the case of `Cc1cc(Oc2nccc3occc23)cc(C)c1-c1c(C)ncc2nccn12` [Example 162], the EC50 on D1 [1] was 251 nM and 446 nM. Moreover, the Ki on D1 [2] (setting [3]) stood at 10.6 nM.

For `Cc1ncccc1-c1ccc(Oc2nccc3occc23)cc1OCCCN(C)C` [Example 73, 3-[5-(furo[3,2-c]pyridin-4-yloxy)-2-(2-methylpyridin-3-yl)phenoxy]-N,N-dimethylpropan-1-amine, formate salt], the EC50 at D1 [1] is 748 nM and 966 nM. At D1 [2] (setting [3]), the Ki was found to be 37.7 nM.

On D1 [1], `Cc1cc(Oc2nccc3occc23)ccc1-c1ccc(O)c2nccn12` [Example 137, 5-[4-(furo[3,2-c]pyridin-4-yloxy)-2-methylphenyl]imidazo[1,2-a]pyridin-8-ol] yielded an EC50 of 209 nM. Moreover, affinity on D1 [2] (setting [3]) was put at a Ki of 42 nM.

As to `Cc1ncnc(C)c1-c1cc(F)c(Oc2nccc3occc23)c(F)c1` [Example 128, 4-[4-(4,6-dimethylpyrimidin-5-yl)-2,6-difluorophenoxy]furo[3,2-c]pyridine], a half-maximal effect on D1 [1] (EC50) was put at 5480 nM. The compound also came in with a Ki on D1 [2] (setting [3]) of 379 nM.

Turning to `Cc1cc(Oc2nccc3occc23)ccc1-c1c(C)nc(N)c2nccn12` [Example 112, 5-[4-(furo[3,2-c]pyridin-4-yloxy)-2-methylphenyl]-6-methylimidazo[1,2-a]pyrazin-8-amine], the half-maximal effective concentration (EC50) on D1 [1] is 156 nM. On D1 [2] (setting [3]), this compound had a Ki of 13.8 nM.

As for `CNc1cc(Oc2nccc3occc23)ccc1-c1cccc2nccn12` [Example 38, 5-(furo[3,2-c]pyridin-4-yloxy)-2-(imidazo[1,2-a]pyridin-5-yl)-N-methylaniline], at D1 [1], the EC50 was determined as 200 nM. Moreover, the Ki at D1 [2] (setting [3]) came to 36 nM.

The compound `Cc1cc(Oc2nccc3occc23)ccc1-c1cccc2cnn(C)c12` [Example 200, 4-[3-methyl-4-(1-methyl-1H-indazol-7-yl)phenoxy]furo[3,2-c]pyridine] registered an EC50 at D1 [1] of 1240 nM. The compound also displayed a Ki at D1 [2] (setting [3]) of 111 nM.

Compound `Cc1cc(Oc2nccc3occc23)ccc1-c1cncc2nccn12` [Example 189, 5-[4-(furo[3,2-c]pyridin-4-yloxy)-2-methylphenyl]imidazo[1,2-a]pyrazine, trifluoroacetate salt] came in with an EC50 on D1 [1] of 308 nM. On D1 [2] (setting [3]), this compound had an inhibition constant Ki of 77.6 nM.

`Cc1cccnc1COc1cc(Oc2nccc3occc23)ccc1-c1nccnc1C` [Example 68, 4-{4-(3-methylpyrazin-2-yl)-3-[(3-methylpyridin-2-yl)methoxy]phenoxy}furo[3,2-c]pyridine, formate salt] displayed an EC50 on D1 [1] of 1480 nM. Also, the affinity on D1 [2] (setting [3]) corresponds to a Ki of 154 nM.

For `Cc1cc(Oc2nccc3occc23)ccc1-c1cc(N)cnc1C` [Example 86, 5-[4-(furo[3,2-c]pyridin-4-yloxy)-2-methylphenyl]-6-methylpyridin-3-amine], the EC50 on D1 [1] was 833 nM and 4870 nM. For the same compound, affinity at D1 [2] (setting [3]) was put at a Ki of 113 nM.

On to `Cc1nccnc1-c1ccc(Oc2nccc3occc23)cc1OCCCN(C)C` [Example 61, 3-[5-(furo[3,2-c]pyridin-4-yloxy)-2-(3-methylpyrazin-2-yl)phenoxy]-N,N-dimethylpropan-1-amine, formate salt], for which the EC50 on D1 [1] is 1110 nM and 811 nM. The Ki on D1 [2] (setting [3]) is 228 nM.

Compound `Cc1cc(Oc2nccc3occc23)ccc1-c1c(C)ncnc1N1Cc2cnn(C)c2C1` [Example 164, 4-{3-methyl-4-[4-methyl-6-(1-methyl-4,6-dihydropyrrolo[3,4-c]pyrazol-5(1H)-yl)pyrimidin-5-yl]phenoxy}furo[3,2-c]pyridine, formate salt] had an EC50 on D1 [1] of 625 nM. The Ki at D1 [2] (setting [3]) was determined as 15.2 nM.

As for `COc1cc(Oc2nccc3occc23)ccc1-c1nccnc1C` [Example 6, 4-[3-methoxy-4-(3-methylpyrazin-2-yl)phenoxy]furo[3,2-c]pyridine], at D1 [1], the EC50 is 804 nM and 897 nM. This compound also showed a Ki on D1 [2] (setting [3]) of 169 nM.

Regarding `Cc1cc(Oc2nccc3occc23)ccc1-c1c(C)ccc2nccn12` [Example 35, 4-[3-methyl-4-(6-methylimidazo[1,2-a]pyridin-5-yl)phenoxy]furo[3,2-c]pyridine], the EC50 at D1 [1] came to 63.6 nM. Further, at D1 [2] (read-out: Human D1 Receptor Binding, Ki (nM), Geometric mean of 2-4 determinations, a: >=5 determinations, d: single determination), the Ki stood at 6.86 nM.

`COc1cc(Oc2nccc3occc23)ccc1-c1c(C)ncc2nccn12` [Example 173, 5-[4-(furo[3,2-c]pyridin-4-yloxy)-2-methoxyphenyl]-6-methylimidazo[1,2-a]pyrazine]: on D1 [1], the EC50 was 564 nM. The affinity at D1 [2] (setting [3]), expressed as Ki, was 36.8 nM.

For the compound `Cc1n[nH]c(=O)c(C)c1-c1ccc(Oc2nccc3occc23)cc1` [Example 28, 5-[4-(Furo[3,2-c]pyridin-4-yloxy)phenyl]-4,6-dimethylpyridazin-3(2H)-one], on D1 [1], the EC50 is 110 nM. The compound further came in with a Ki at D1 [2] (setting [3]) of 19.3 nM.

The compound `Cc1cnnc(C)c1-c1ccc(Oc2nccc3occc23)cc1` [Example 150, 4-[4-(3,5-dimethylpyridazin-4-yl)phenoxy]furo[3,2-c]pyridine] yielded an EC50 at D1 [1] of 443 nM. The compound further showed a Ki on D1 [2] (setting [3]) of 67 nM.

Turning to `COc1cc(Oc2nccc3occc23)ccc1-c1cccc(=O)n1C` [Example 166, 6-[4-(furo[3,2-c]pyridin-4-yloxy)-2-methoxyphenyl]-1-methylpyridin-2(1H)-one], on D1 [1], the midpoint of the response, the EC50, lay at 310 nM. At D1 [2] (setting [3]), the Ki turned out to be 22.9 nM.

In turn, `Cc1ncnc(C)c1-c1ccc(Oc2nccc3occc23)c2c1OCO2` [Example 156, 4-{[7-(4,6-dimethylpyrimidin-5-yl)-1,3-benzodioxol-4-yl]oxy}furo[3,2-c]pyridine] returned an EC50 at D1 [1] of more than 15100 nM. At D1 [2] (setting [3]), this compound registered a Ki of 1820 nM.

`COc1cc(Oc2nccc3occc23)ccc1-c1c(C)cnnc1C` (single isomer, unassigned) [Example 143, (+)-4-[4-(3,5-dimethylpyridazin-4-yl)-3-methoxyphenoxy]furo[3,2-c]pyridine] registered an EC50 at D1 [1] of 273 nM. On D1 [2] (setting [3]), this compound displayed a Ki of 64.9 nM.
